Laboratory results: article PMC9631745 (ACS Omega, 2022)

Molecular target: human transferrin (Tf; hTf) (Homo sapiens, UniProt P02787)
Test: isothermal titration calorimetry
Assay type: binding

human transferrin (Tf; hTf), sequence (P02787 20-698): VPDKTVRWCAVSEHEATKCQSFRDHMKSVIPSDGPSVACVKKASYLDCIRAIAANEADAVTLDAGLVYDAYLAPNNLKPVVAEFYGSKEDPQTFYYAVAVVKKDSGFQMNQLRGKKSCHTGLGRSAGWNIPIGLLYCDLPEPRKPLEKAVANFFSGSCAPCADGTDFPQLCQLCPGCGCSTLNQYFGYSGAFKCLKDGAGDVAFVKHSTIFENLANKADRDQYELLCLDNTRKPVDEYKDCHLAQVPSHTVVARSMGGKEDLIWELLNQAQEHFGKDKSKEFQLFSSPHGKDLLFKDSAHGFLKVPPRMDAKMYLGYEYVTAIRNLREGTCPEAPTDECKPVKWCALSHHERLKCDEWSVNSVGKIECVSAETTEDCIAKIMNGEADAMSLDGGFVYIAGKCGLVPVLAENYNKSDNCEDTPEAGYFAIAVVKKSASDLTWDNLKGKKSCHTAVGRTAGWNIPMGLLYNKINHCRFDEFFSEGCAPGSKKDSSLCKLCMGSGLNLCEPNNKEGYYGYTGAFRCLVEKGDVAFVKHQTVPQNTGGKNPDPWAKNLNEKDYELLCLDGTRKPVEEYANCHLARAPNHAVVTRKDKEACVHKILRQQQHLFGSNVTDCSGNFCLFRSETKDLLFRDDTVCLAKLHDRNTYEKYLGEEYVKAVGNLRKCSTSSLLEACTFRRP

In the case of `C/C=C1\[C@H]2C=C(C)C[C@]1(N)c1ccc(=O)[nH]c1C2` [Huperzine A], the Kd is reported as 1450 nM.
